Values belong to the compound of their own block, whether it stands above or below them. Residues, ends and D or L forms follow the SMILES beside them. *: point of attachment. Cbz = O=C(OCc1ccccc1)*; CH2F = FC*
Legend:
CLL cells [1] = assay: Viability of CLL cells, erythrocin B exclusion assay; details: for toxicity of the enantiomers to CLL cells: RPMI 1640 with 10% autologous plasma, FIG. 5
CLL cells [2] = assay: MTT cytotoxicity assay, CLL cells; assay type: cell-based; details: Homo sapiens, CLL cell, 72 hours, duplicate
Experimental: The compounds of the invention were screened for CLL apoptotic activity by flow cytometry and a MTT-based assay. […] Primary PBL cells were acquired from the San Diego Blood Bank, San Diego, Calif. DiOC6 and PI dyes were obtained from Molecular Probes, Eugene, Oreg. Otherwise, unless indicated, all other reagents were purchased from Sigma (St. Louis, Mo.), and all test compounds were dissolved in sterile DMSO.
To get a more concise measure of the EC50 and confirm the flow cytometry results, a MTT (3-(4,5-dimethylthiazol-2-yl)-2,5-diphenyl tertrazolium bromide) assay using a procedure similar to that described by Mosmann, T., J Immunol Methods. 1983, 65, 55-63, was performed on all analogs. This method provided a larger number of datapoints so that a value for the EC50 could be extrapolated.
This assay was based on a procedure described by Mosmann. Briefly, in each well of a 96-well plate, 5×10^5 CLL cells were suspended in 100 μL of […] medium containing 10% FBS, 100 μg/mL penicillin, and 100 μg/mL streptomycin. Serial dilution of test compounds were then performed in duplicate across the plate to establish a concentration gradient from 0 to 1000 μM. After 72 hours of incubation at 37° C., the cells were incubated for 6 more hours in the presence of 20 μL of 5 mg/mL MTT (3-(4,5-dimethylthiazol-2-yl)-2,5-diphenyl tertrazolium bromide) before dissolving the resulting crystals in 50 μL lysis buffer (15% SDS, 15 mM HCl) overnight. Afterwards, the absorbance of each well was measured at […] in a Finstrument Microplate Reader, and the data was analyzed by Graphpad Prism Software, version 2.0b.

in vitro = details: human
[3] = cited from earlier work
HCT-116 (Colon) = assay: Cytotoxicity by MTT assay, HCT-116; assay type: cell-based; details: three days continuous exposure
[4] = Plasma pharmacokinetics of etodolac enantiomers; assay type: in vivo; details: 1 gram dosage, human subject
LNCaP-FGC (Prostate) = assay: Cytotoxicity by MTT assay, LNCaP-FGC; assay type: cell-based; details: three days continuous exposure
normal bone marrow cells = assay: Killing of normal bone marrow cells in patient bone marrow (propidium iodide / anti-CD38, FACS); assay type: cell-based, human; details: 72 hours, marrow of two patients; FIGS. 9-10
multiple myeloma cells = assay: Killing of multiple myeloma cells in patient bone marrow (propidium iodide / anti-CD38, FACS); assay type: cell-based, human; details: 72 hours, marrow of two patients; FIGS. 9-10
PC-3 (Prostate) = assay: Cytotoxicity by MTT assay, PC-3; assay type: cell-based; details: three days continuous exposure
OVCAR-3 (Ovarian) = assay: Cytotoxicity by MTT assay, OVCAR-3; assay type: cell-based; details: three days continuous exposure
A549 (Lung) = assay: Cytotoxicity by MTT assay, A549; assay type: cell-based; details: three days continuous exposure
adjuvant polyarthritis = details: reduction in paw volume, prostaglandin synthetase inhibitory activity; cited from earlier work
Mcl-1 = Mcl-1 level in LNCaP cells, SDS-PAGE immunoblot; assay type: cell-based; details: for effect on the etodolac-induced fall in Mcl-1 levels: co-incubation with 5.0 μM MG-132 or pre-incubation with Z-VAD, LNCaP
MDA-MB-231 (Breast) = assay: Cytotoxicity by MTT assay, MDA-MB-231; assay type: cell-based; details: three days continuous exposure
prostate cancer tissue = assay: Prostatectomy tissue samples incubated 72 hours, histology; assay type: cell-based
Excerpt: The tissues were next fixed in 4% paraformaldehyde in PBS, embedded in paraffin, sectioned and stained with hematoxylin and eosin.

Alva-31 (Prostate) = assay: Cytotoxicity by MTT assay, Alva-31; assay type: cell-based; details: three days continuous exposure
B-cell CLL cells = details: cited from earlier work
prostate cancer = details: TRAMP mouse; cited from earlier work
[5] = target: T1, COX-1 isolated from human platelets (Homo sapiens, UniProt P23219); assay: COX-1 enzyme assay (PGE2 enzyme immunoassay); assay type: biochemical; details: duplicate
T1 construct: COX-1 isolated from human platelets; tissue MDS Pharma Services; host or cells: human platelets
Experimental: (§1) Compounds active in both the flow cytometry and MTT experiments were then tested for COX inhibition at 50 μM in an enzyme assay using COX-1 isolated from human platelets and human recombinant COX-2 purified from insect cells (Spodoptera frugiperda), as described by Riendeau et. al., Br J Pharmacol. 1997, 121, 105-117; Riendeau et. al., Can J Physiol Pharmacol. 1997, 75, 1088-1095; and Warner et. al. Proc Natl Acad Sci. 1999, 96, 7563-7568. These assays were performed by MDS Pharma Services, Bothell, Wash. The compounds were incubated in duplicate with COX-1 isolated from human platelets and human recombinant COX-2 purified from insect cells (Spodoptera frugiperda). Enzyme immunoassay quantification of prostaglandin E2 production from arachidonic acid in the presence (50 μM) and absence of test compounds was used to determine the percentage of COX inhibition.

human recombinant COX-2 = target: T2, human recombinant COX-2 (Homo sapiens, UniProt P35354); assay: COX-2 enzyme assay (PGE2 enzyme immunoassay); assay type: biochemical; details: duplicate
T2 construct: MDS Pharma Services (performed the assay); host or cells: Spodoptera frugiperda insect cells
Experimental: as §1

Bag-1 = Bag-1 level in LNCaP cells, SDS-PAGE immunoblot; assay type: cell-based; details: co-incubation with 5.0 μM MG-132 or pre-incubation with Z-VAD
[6] = primary normal peripheral blood lymphocyte (PBL) cells
[7] = 200 mg dose, six elderly patients

T2 sequence (P35354 18-604): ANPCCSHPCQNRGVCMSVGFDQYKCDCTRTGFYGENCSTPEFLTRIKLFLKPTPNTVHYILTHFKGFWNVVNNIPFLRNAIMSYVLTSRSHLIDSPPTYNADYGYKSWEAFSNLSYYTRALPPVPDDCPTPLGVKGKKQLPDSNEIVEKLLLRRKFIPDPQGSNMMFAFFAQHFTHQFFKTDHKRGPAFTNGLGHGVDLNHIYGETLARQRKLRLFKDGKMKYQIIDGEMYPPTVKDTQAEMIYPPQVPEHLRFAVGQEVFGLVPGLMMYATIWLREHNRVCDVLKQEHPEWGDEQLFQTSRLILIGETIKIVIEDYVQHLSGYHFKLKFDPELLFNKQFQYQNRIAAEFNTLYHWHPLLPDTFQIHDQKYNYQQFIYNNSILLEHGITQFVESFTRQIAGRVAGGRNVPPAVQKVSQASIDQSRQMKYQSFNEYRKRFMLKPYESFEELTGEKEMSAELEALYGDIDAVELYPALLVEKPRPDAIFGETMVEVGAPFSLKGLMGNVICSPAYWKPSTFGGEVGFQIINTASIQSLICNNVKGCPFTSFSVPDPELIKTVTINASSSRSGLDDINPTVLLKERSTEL
T1 sequence (P23219 24-599): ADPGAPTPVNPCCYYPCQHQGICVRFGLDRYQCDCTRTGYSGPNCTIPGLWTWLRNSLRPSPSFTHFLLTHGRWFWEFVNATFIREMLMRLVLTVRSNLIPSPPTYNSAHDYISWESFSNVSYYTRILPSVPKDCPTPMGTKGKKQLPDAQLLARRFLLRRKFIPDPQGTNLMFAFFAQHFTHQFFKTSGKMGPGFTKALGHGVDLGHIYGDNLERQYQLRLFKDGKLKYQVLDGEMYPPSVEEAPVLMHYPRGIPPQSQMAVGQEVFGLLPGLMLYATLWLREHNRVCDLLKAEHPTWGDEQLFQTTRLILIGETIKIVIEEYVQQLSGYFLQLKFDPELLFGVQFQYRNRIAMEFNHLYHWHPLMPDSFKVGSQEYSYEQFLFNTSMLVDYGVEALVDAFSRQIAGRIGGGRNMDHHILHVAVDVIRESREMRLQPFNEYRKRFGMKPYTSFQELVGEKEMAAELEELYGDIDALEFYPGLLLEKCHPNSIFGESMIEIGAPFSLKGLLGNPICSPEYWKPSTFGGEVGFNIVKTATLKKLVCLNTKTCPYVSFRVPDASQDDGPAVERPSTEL

Compound: Nc1nc(F)nc2c1ncn2[C@@H]1O[C@H](CO)[C@@H](O)[C@@H]1O [fludarabine]
- cytotoxic effect on CLL cells, either drug alone (CLL cells [1]; fludarabine 10 nM or etodolac 10 μM alone, 48 hours, FIG. 3): ineffective

Compound: CCc1cccc2c3c([nH]c12)C(CC)(CCOCSC)OCC3 (stereo not shown) [Compound 9, 1,8-Diethyl-1-(2-methylsufanylmethoxyethyl)-1,3,4,9-tetrahydropyrano[3,4-b]indole]
- EC50 (CLL cells [2]): 324 µM

Compound: CCc1cccc2c3c([nH]c12)C(CC)(CCF)OCC3 (stereo not shown) [Compound 3, 1,8-Diethyl-1-(2-fluoroethyl)-1,3,4,9-tetrahydropyrano[3,4-b]indole]
- CC50 at 48 h (in vitro; [6]): < 100 µM
- EC50 (CLL cells [2]): 767 µM

Compound: CCc1cccc2c3c([nH]c12)C(CC)(CCOC(C)=O)OCC3 (stereo not shown) [Compound 10, Acetic acid-2-(1,8-diethyl-1,3,4,9-tetrahydropyrano[3,4-b]indol-1-yl)-ethyl ester]
- CC50 at 48 h (in vitro; [6]): 100 to 250 µM
- EC50 (CLL cells [2]): 686 µM

Compound: CCc1cccc2c3c([nH]c12)[C@@](CC)(CC(=O)O)OCC3 [R-etodolac]
- maximum plasma concentration [3, 7]: about 33 μM
- plasma concentrations of the R-enantiomer relative to the S-enantiomer ([3]; after administration of RS-etodolac): about 10 fold higher
- IC50 (HCT-116 (Colon); Homo sapiens, 72 h): 280 ± 20 µM
- CC50 at 48 h (in vitro): ~500 µM
- EC50 (CLL cells [2]): 247 µM
- maximal plasma concentration that a dosage should yield [4]: about 400 μM
- IC50 (LNCaP-FGC (Prostate); 72 h): 270 ± 50 µM
- killing of normal bone marrow cells (normal bone marrow cells): did not kill
- killing of multiple myeloma cells (multiple myeloma cells): dose-dependently killed
- IC50 (PC-3 (Prostate); 72 h): 150 ± 15 µM
- IC50 (OVCAR-3 (Ovarian); Homo sapiens, 72 h): > 1000 µM
- IC50 (A549 (Lung); Homo sapiens, 72 h): > 1000 µM
- anti-inflammatory activity (adjuvant polyarthritis): No anti-inflammatory activity was discernible
- Mcl-1 degradation by the enantiomers (Mcl-1): induced Mcl-1 degradation at equivalent concentrations
- IC50 (MDA-MB-231 (Breast); Homo sapiens, 72 h): > 1000 µM
- activity in prostatectomy samples (prostate cancer tissue): active
- IC50 (Alva-31 (Prostate); 72 h): > 1000 µM
- toxicity of the enantiomers to CLL cells (CLL cells [1]): equivalently cytotoxic

Compound: CC(=O)Oc1ccccc1C(=O)O [aspirin]
- viability of B-cell CLL cells in vitro (B-cell CLL cells): reduced the viability

Compound: C[C@@H](C(=O)O)c1ccc(-c2ccccc2)c(F)c1 [R-flurbiprofen]
- progression of prostate cancer (prostate cancer): inhibited progression of prostate cancer

Compound: CCc1cccc2c3c([nH]c12)C(CC)(CC=N)OCC3 (stereo not shown) [Compound 7, 2-(1,8-Diethyl-1,3,4,9-tetrahydropyrano[3,4-b]indol-yl)-ethylideneamine]
- CC50 at 48 h (in vitro; [6]): 250 to 500 µM
- EC50 (CLL cells [2]): 714 µM

Compound: CCc1cccc2c3c([nH]c12)C(CC)(CC(N)=O)OCC3 (stereo not shown) [Compound 6, 2-(1,8-Diethyl-1,3,4,9-tetrahydropyrano[3,4-b]indol-1-yl)-acetamide]
- CC50 at 48 h (in vitro; [6]): > 500 µM
- EC50 (CLL cells [2]): 258 µM
- inhibition at 50 µM [5]: 36%
- inhibition at 50 µM (human recombinant COX-2): 69%

- melting point: 133 to 134 °C
Compound: CCc1cccc2c3c([nH]c12)C(CC)(CC)OCC3 [Compound 5, 1,1,8-Triethyl-1,3,4,9-tetrahydropyrano[3,4-b]indole]
- EC50 (CLL cells [2]): > 1000 µM

Compound: O=C(O)c1ccccc1O [salicylate]
- viability of B-cell CLL cells in vitro (B-cell CLL cells): reduced the viability

Compound: CCc1cccc2c3c([nH]c12)C(CC)(CCO)OCC3 (stereo not shown) [Compound 1, 2-(1,8-Diethyl-1,3,4,9-tetrahydropyrano[3,4-b]indol-1-yl)-ethanol]
- CC50 at 48 h (in vitro; [6]): ~500 µM
- EC50 (CLL cells [2]): 178 µM
- inhibition at 50 µM [5]: 0%
- inhibition at 50 µM (human recombinant COX-2): 0%

Compound: CCc1cccc2c3c([nH]c12)C(CC)(CC=O)OCC3 (stereo not shown) [Compound 8, (1,8-Diethyl-1,3,4,9-tetrahydropyrano[3,4-b]indol-1-yl)-acetaldehyde]
- CC50 at 48 h (in vitro; [6]): < 100 µM
- EC50 (CLL cells [2]): 111 µM

Compound: CC(C)C[C@@H](C=O)NC(=O)[C@H](CC(C)C)NC(=O)[C@H](CC(C)C)NC(=O)OCc1ccccc1 [MG-132] (Cbz-Leu-Leu-Leu-aldehyde)
- effect on the etodolac-induced fall in Bag-1 levels (Bag-1): prevented
- effect on the etodolac-induced fall in Mcl-1 levels (Mcl-1): prevented

- melting point: 158 to 159 °C
Compound: CCc1cccc2c3c([nH]c12)C(CC)(CC(O)O)OCC3 (stereo not shown) [Compound 11, 2-(1,8-Diethyl-1,3,4,9-tetrahydropyrano[3,4-b]indol-1-yl)-ethane-1,1-diol]
- EC50 (CLL cells [2]): 416 µM

Compound: CCc1cccc2c3c([nH]c12)C(CC)(CC(C)O)OCC3 (stereo not shown) [Compound 12, 1-(1,8-Diethyl-1,3,4,9-tetrahydropyrano[3,4-b]indol-1-yl)-propan-2-ol]
- CC50 at 48 h (in vitro; [6]): 250 to 500 µM
- EC50 (CLL cells [2]): 272 µM

Compound: CCc1cccc2c3c([nH]c12)C(CC)(CCCl)OCC3 (stereo not shown) [Compound 4, 1-(2-Chloroethyl)-1,8-diethyl-1,3,4,9-tetrahydropyrano[3,4-b]indole]
- CC50 at 48 h (in vitro; [6]): < 100 µM
- EC50 (CLL cells [2]): 572 µM

Compound: CCc1cccc2c3c([nH]c12)C(CC)(CC(C)=O)OCC3 (stereo not shown) [Compound 13, 1-(1,8-Diethyl-1,3,4,9-tetrahydropyrano[3,4-b]indol-1-yl)-propan-2-one]
- CC50 at 48 h (in vitro; [6]): > 750 µM
- EC50 (CLL cells [2]): > 1000 µM

Compound: CCc1cccc2c3c([nH]c12)[C@](CC)(CC(=O)O)OCC3 [S-etodolac]
- maximum concentration relative to the R-enantiomer [3, 7]: 5 fold lower
- IC50 (HCT-116 (Colon)): 420 ± 50 µM
- IC50 (LNCaP-FGC (Prostate)): 220 ± 20 µM
- IC50 (PC-3 (Prostate)): 800 µM
- IC50 (OVCAR-3 (Ovarian)): > 1000 µM
- IC50 (A549 (Lung)): > 1000 µM
- anti-inflammatory activity (adjuvant polyarthritis): almost all of the anti-inflammatory activity of the racemate
- Mcl-1 degradation by the enantiomers (Mcl-1): induced Mcl-1 degradation at equivalent concentrations
- IC50 (MDA-MB-231 (Breast)): > 1000 µM
- activity in prostatectomy samples (prostate cancer tissue): active
- IC50 (Alva-31 (Prostate)): > 1000 µM
- toxicity of the enantiomers to CLL cells (CLL cells [1]): equivalently cytotoxic

Compound: CC(NC(=O)C(NC(=O)OCc1ccccc1)C(C)C)C(=O)NC(CC(=O)O)C(=O)CF (stereo not drawn) [Z-VAD] (Cbz-Val-Ala-Asp-CH2F; configuration not given here)
- effect on the etodolac-induced fall in Bag-1 levels (Bag-1): did not prevent
- effect on the etodolac-induced fall in Mcl-1 levels (Mcl-1): did not prevent

Compound: CCc1cccc2c3c([nH]c12)C(CC)(CCOC)OCC3 (stereo not shown) [Compound 2, 1,8-Diethyl-1-(2-methoxyethyl)-1,3,4,9-tetrahydropyrano[3,4-b]indole]
- CC50 at 48 h (in vitro; [6]): > 750 µM
- EC50 (CLL cells [2]): > 1000 µM

— US7361680B2, “Indole compounds useful for the treatment of cancer” (The Regents of the University of California, priority 1999, dated 2008)
